The source of these data is patent US8258296B2, “Crystalline antifungal compounds” (Palau Pharma, S.A., priority 2006, dated 2012).

Type in all cases: physicochemical
Data set [1] is described as follows: Hygroscopicity characterisation.
A short description of data set [2]: Storage stability, detection of degradation products. The source says: (§1) Accordingly, the present subject matter relates to methods of identifying, obtaining, and purifying the various crystalline forms of (1R,2R)-7-chloro-3-[2-(2,4-difluorophenyl)-2-hydroxy-1-methyl-3-(1H-1,2,4-triazol-1-yl)propyl]quinazolin-4(3H)-one. These crystalline forms, namely Forms I-VI, were identified as six distinct crystal forms. Certain physical characteristics of these crystalline forms generated during crystallization studies, are as follows: • Form I: typically obtained by crystallizing the amorphous form using supercritical CO2 crystallization conditions. […] Diethyl ether can then be optionally added. […] Form V can best be characterized as a crystalline phase containing between about 2 and about 7% by weight of ethyl acetate and about 0.5 to about 2.5% by weight of hexane. • Form VI: typically obtained by slurrying (1R,2R)-7-chloro-3-[2-(2,4-difluorophenyl)-2-hydroxy-1-methyl-3-(1H-1,2,4-triazol-1-yl)propyl]quinazolin-4(3H)-one in aqueous ethanol or by slowly cooling a saturated aqueous ethanol solution that was seeded. This form may be obtained when the slurry comprises any other Form of (1R,2R)-7-chloro-3-[2-(2,4-difluorophenyl)-2-hydroxy-1-methyl-3-(1H-1,2,4-triazol-1-yl)propyl]quinazolin-4(3H)-one, such as, for example, the amorphous form, Form III, Form IV, Form V, or combinations thereof. […]

The nature of data set [3]: Slurry experiment to estimate rate of conversion of Form III to Form VI (XRPD). The settings on record: slurry at 45° C. in ethanol-water (1:9), seeded with Form VI, XRPD analysis. Here is the method: Form VI may be prepared by slurrying albaconazole in aqueous ethanol or by slowly cooling a saturated aqueous ethanol solution that was seeded. In order to estimate rate of conversion, a slurry experiment of Form III was setup at 45° C. in ethanol-water (1:9), seeded with Form VI and aliquots periodically removed. Solids from the first aliquot removed after ˜3 hours were composed of only Form VI by XRPD analysis. A slow cool method was also attempted by cooling a saturated solution of albaconazole in aqueous ethanol that was seeded. Form VI solids were isolated in a 41% yield.

Data set [4] is described as follows: Solid-form conversion on extended storage. The conditions noted are these: storage for 3 months at 40° C. and 75% RH.
Source text: as §1

Take `C[C@@H](n1cnc2cc(Cl)ccc2c1=O)[C@](O)(Cn1cncn1)c1ccc(F)cc1F` [Form VI, (1R,2R)-7-chloro-3-[2-(2,4-difluorophenyl)-2-hydroxy-1-methyl-3-(1H-1,2,4-triazol-1-yl)propyl]quinazolin-4(3H)-one]: the hygroscopicity result in data set [1] was “non-hygroscopic”.
For `C[C@@H](n1cnc2cc(Cl)ccc2c1=O)[C@](O)(Cn1cncn1)c1ccc(F)cc1F` [Form III, (1R,2R)-7-chloro-3-[2-(2,4-difluorophenyl)-2-hydroxy-1-methyl-3-(1H-1,2,4-triazol-1-yl)propyl]quinazolin-4(3H)-one], the “degradation products detected after storage” value in data set [2] (6 months of storage at 25° C./60% RH) and in data set [2] (6 months of storage at 30° C./65% RH) was “No degradation products” each time. The “time to complete conversion of slurry to Form VI” value in data set [3] is approximately 3 h. Further, in data set [4], the “conversion of the original form to Form IV on storage” value is “some but not all of the original form converts to Form IV”.
